Several values for one entry are separate records, joined by “and”; a condition that tells them apart may be missing. Equal values may be shown once. Where a name gives a salt, the structure may show the parent alone. Read-outs that look alike come from different tables or passages of the source.
Experiments:
EGFR NFAT = assay: ERBBprofiler barcoded NFAT pathway sensor, EGFR co-transfected; assay type: cell-based, Rattus norvegicus
HTR2A EGR1p = assay: ERBBprofiler barcoded EGR1p pathway sensor, HTR2A co-transfected; settings: read-out: HTR2A EGR1p IC50
ERBB2 [1] = settings: read-out: IC50_Literature, ERBB2; cited from earlier work
ERBB3 = settings: read-out: IC50_Literature, ERBB3; cited from earlier work
ERBB4 NFAT = assay: ERBBprofiler barcoded NFAT pathway sensor, ERBB4 co-transfected; assay type: cell-based, Rattus norvegicus
EGFR EGR1p = assay: ERBBprofiler barcoded EGR1p pathway sensor, EGFR co-transfected; settings: read-out: EGFR EGR1p IC50
ERBB2/3 EGR1p = assay: ERBBprofiler barcoded EGR1p pathway sensor, ERBB2/3 co-transfected; settings: read-out: ERBB2/3 EGR1p IC50
[2] = system: CRE (cAMP/Ca2+ signaling); assay: ERBBprofiler barcoded CRE sensor only (no receptor transfected); settings: Rattus norvegicus, PC-12, read-out: CRE EC50 (barcode)
HTR2A NFAT = assay: ERBBprofiler barcoded NFAT pathway sensor, HTR2A co-transfected; settings: for IC50: Rattus norvegicus, PC-12, 6 h, read-out: HTR2A NFAT IC50
NFAT (HTR2A) = assay: NFAT pathway sensor luciferase assay, HTR2A transfected; assay type: cell-based, Rattus norvegicus; settings: agonist dose response, PC12 cells, luciferase readout
Description: (§1) 50,000 PC12 cells were seeded per 96-well onto poly-L-lysin (PLL)-coated plates and transfected the following day (day in vitro 1, DIV1) with assay plasmids using Lipofectamine 3000 (Thermo Fisher Scientific). For split TEV assays, plasmids (pcDNA3 or pTag4C backbone) encoding receptor-NTEV-tcs-GV, GRB2-SH2-CTEV (for ERBB receptors) or ARBB2-1-383-CTEV (for HTR2A) (all 10 ng/well), and the p10xUAS-luc2 reporter plasmid (10 ng/well) were used. For pathway assays, the receptor plasmids (15 ng/well) and pathway reporter plasmids (15 ng/well) pEGR1p-luc2 for monitoring MAPK signaling, pCRE-CMVmin-luc2 for monitoring cAMP/Ca^2+ signaling, or p6xNFAT-CMVmin-luc2 for Ca^2+ signaling were used. Transient transfections were conducted according to the manufacturer’s instructions. On DIV2, cells were starved in medium containing 1% FCS for 16 h. […] In the case of antagonist assays, compounds were added at increasing doses together with the stimulus. Cells were lysed in 1x passive lysis buffer (Promega) and subjected to a firefly luciferase assay using a self-made substrate for firefly luciferase.[100] Luciferase activity was analyzed in a Mithras LB 940 Multimode Microplate Reader (Berthold Technologies). All assays were run in 96-well plates using six replicates per condition.

CRE (HTR2A) = assay: CRE pathway sensor luciferase assay, HTR2A transfected; assay type: cell-based, Rattus norvegicus; settings: agonist dose response, PC12 cells, luciferase readout
Description: as §1

HTR2A CRE = assay: ERBBprofiler barcoded CRE pathway sensor, HTR2A co-transfected; settings: read-out: CRE (HTR2A) activity EC50 (barcode); agonist dose response, PC12 cells, HTR2A co-transfected, barcode readout
EGR1p (ERBB4) = assay: EGR1p pathway sensor luciferase assay, ERBB4 transfected; assay type: cell-based, Rattus norvegicus; settings: agonist dose response, PC12 cells, luciferase readout
Description: as §1

ERBB4 EGR1p = assay: ERBBprofiler barcoded EGR1p pathway sensor, ERBB4 co-transfected; settings: for EGR1p (ERBB4) activity EC50 (barcode): agonist dose response, PC12 cells, ERBB4 co-transfected, barcode readout; for IC50: Rattus norvegicus, PC-12, 6 h, read-out: ERBB4 EGR1p IC50
ERK (MAPK) = system: ERK (MAPK); design: method as in Schaefer et al., 2007; settings: phospho-WB in NR6 cells; ref Schaefer et al., 2007; read-out: IC50_Literature, ERK (MAPK); cited from earlier work
ERBB4 [3] = settings: read-out: IC50_Literature, ERBB4; cell viability overexpressing ERBB4 variants; ref Chakroborty et al., 2022; cited from earlier work
ERBB2 [4] = system: ERBB2; design: method as in Schaefer et al., 2007; settings: phospho-WB in NR6 cells; ref Schaefer et al., 2007; read-out: IC50_Literature, ERBB2; cited from earlier work
CRE sensor = CRE sensor only luciferase assay in PC12 cells; assay type: cell-based, Rattus norvegicus
ERBB2 [5] = system: ERBB2; design: method as in La Monica et al., 2017; settings: phospho-WB in PC9/HER2c1 cells; ref La Monica et al., 2017; read-out: IC50_Literature, ERBB2; cited from earlier work
cAMP = assay: GloSensor cAMP assay in PC12 cells; assay type: cell-based, Rattus norvegicus; settings: Rattus norvegicus, PC-12, 0.25 h, constant stimulation mix, 15 min, cAMP increase
EGFR [6] = settings: read-out: IC50_Literature, EGFR; phospho-WB in Cos 7 cells; ref Floc'h et al., 2020; cited from earlier work
calcium = assay: Fluo-4 AM calcium assay in PC12 cells; assay type: cell-based, Rattus norvegicus; settings: stimulation mix
ERBB4 [7] = system: ERBB4; design: method as in Cross et al., 2014; settings: commercial biochemical kinome panel (Millipore); ref Cross et al., 2014; read-out: IC50_Literature, ERBB4; cited from earlier work
[8] = target: EGR1p (MAPK signaling), EGFR; assay: EGR1p pathway sensor luciferase assay, EGFR; assay type: cell-based, Rattus norvegicus; settings: agonist dose response, PC12 cells, luciferase readout
Description: as §1

[9] = target: EGR1p (MAPK/ERK signaling); assay: ERBBprofiler barcoded EGR1p sensor only (no receptor transfected); settings: agonist dose response, PC12 cells, barcode readout
[10] = system: ERBB receptors, HTR2A, and downstream signaling pathways; assay: ERBBprofiler multiplexed barcoded assay, overall statements across all receptor batches and sensors; settings: PC12 cells, stimulation mix
ERBB2/3 CRE = assay: ERBBprofiler barcoded CRE pathway sensor, ERBB2/3 co-transfected; settings: Rattus norvegicus, PC-12, 6 h, read-out: ERBB2/3 CRE IC50
EGFR CRE = assay: ERBBprofiler barcoded CRE pathway sensor, EGFR co-transfected; settings: Rattus norvegicus, PC-12, 6 h, read-out: EGFR CRE IC50
ERBB2/3 = ERBB2/3 (Homo sapiens, UniProt P04626+P21860); assay: ERBBprofiler barcoded split TEV assay, ERBB2/3
EGFR [11] = target: EGFR (Homo sapiens, UniProt P00533); assay: ERBBprofiler barcoded split TEV assay, EGFR
Sequence of EGFR (P00533 25-1210): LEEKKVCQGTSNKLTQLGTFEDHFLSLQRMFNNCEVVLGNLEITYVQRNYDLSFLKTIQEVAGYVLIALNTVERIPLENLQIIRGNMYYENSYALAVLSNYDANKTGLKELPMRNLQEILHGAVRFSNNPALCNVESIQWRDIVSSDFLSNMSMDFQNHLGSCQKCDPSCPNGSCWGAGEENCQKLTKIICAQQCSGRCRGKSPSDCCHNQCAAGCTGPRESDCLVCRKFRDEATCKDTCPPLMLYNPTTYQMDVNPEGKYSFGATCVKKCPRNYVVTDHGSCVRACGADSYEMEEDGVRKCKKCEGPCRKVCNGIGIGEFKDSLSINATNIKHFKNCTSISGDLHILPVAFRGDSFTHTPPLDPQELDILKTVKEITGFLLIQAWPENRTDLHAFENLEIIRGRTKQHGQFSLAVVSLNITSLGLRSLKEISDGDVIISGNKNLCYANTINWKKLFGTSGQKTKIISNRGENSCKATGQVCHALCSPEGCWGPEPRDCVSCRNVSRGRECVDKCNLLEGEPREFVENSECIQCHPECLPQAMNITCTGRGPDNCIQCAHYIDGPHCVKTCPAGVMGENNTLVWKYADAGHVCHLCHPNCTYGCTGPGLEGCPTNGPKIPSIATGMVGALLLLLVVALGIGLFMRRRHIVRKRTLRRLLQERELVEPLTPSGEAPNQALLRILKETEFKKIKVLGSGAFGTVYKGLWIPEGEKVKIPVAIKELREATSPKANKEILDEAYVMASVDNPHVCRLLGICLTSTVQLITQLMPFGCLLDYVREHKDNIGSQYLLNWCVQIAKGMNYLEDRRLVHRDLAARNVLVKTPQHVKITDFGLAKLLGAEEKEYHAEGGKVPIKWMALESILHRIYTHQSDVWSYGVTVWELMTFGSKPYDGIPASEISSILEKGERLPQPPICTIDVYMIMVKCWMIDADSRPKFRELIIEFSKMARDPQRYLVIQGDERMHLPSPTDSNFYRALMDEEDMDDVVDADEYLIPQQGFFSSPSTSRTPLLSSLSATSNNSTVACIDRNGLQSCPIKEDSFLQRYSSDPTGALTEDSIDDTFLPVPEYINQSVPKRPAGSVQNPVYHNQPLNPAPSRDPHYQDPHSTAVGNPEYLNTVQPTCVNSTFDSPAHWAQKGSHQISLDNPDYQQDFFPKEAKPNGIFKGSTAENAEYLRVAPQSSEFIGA

ERBB4 [12] = target: T1, ERBB4 (Homo sapiens, UniProt Q15303); assay: Split TEV firefly luciferase assay, ERBB4; assay type: cell-based; settings: agonist dose response, PC12 cells, split TEV, luciferase readout
T1 sequence (Q15303 26-1308): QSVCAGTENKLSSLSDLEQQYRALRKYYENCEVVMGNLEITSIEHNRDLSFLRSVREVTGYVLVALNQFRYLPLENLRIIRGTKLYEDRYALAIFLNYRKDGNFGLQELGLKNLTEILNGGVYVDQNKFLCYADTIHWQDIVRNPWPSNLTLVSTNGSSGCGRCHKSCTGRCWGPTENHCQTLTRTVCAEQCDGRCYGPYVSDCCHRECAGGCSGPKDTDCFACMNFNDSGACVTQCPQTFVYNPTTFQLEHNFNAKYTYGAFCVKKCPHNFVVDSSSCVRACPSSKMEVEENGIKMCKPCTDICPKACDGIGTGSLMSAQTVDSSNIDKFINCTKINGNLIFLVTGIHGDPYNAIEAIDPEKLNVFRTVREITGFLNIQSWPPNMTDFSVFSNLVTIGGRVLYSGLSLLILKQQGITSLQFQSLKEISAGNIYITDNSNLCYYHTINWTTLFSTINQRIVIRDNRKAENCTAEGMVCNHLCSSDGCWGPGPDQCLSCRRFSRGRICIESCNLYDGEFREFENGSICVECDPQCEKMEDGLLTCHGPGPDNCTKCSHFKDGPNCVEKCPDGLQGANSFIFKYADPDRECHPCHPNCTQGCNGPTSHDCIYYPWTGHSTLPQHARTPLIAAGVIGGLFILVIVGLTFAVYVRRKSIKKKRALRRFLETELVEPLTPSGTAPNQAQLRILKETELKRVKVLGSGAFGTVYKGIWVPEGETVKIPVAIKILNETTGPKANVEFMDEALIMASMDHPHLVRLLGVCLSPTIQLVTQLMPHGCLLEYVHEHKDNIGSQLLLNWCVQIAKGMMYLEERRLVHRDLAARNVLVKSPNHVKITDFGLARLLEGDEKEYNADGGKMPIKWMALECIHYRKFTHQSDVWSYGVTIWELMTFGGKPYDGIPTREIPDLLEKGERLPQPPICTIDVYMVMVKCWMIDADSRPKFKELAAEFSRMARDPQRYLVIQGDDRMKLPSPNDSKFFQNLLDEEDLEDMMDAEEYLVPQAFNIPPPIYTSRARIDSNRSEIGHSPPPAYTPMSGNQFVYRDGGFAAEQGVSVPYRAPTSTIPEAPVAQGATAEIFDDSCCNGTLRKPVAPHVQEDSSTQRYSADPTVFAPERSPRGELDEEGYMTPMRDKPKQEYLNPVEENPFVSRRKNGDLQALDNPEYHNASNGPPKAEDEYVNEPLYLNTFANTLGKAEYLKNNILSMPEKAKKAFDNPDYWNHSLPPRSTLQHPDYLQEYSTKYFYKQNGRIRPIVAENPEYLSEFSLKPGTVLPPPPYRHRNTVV
Description: as §1

ERBB4 [13] = target: T1, ERBB4; assay: ERBBprofiler barcoded split TEV assay, ERBB4; settings: agonist dose response, PC12 cells, 6 h, split TEV, barcode readout

In the case of `CS(=O)(=O)CCNCc1ccc(-c2ccc3ncnc(Nc4ccc(OCc5cccc(F)c5)c(Cl)c4)c3c2)o1` [Lapatinib, Lapatinib (GW-572016) Ditosylate], the “EGFR NFAT IC50” value (EGFR NFAT) is reported as “no effect (EGFR, ERBB2/3, ERBB4), 0.352 - 4.531 µM (HTR2A)”, the IC50 (HTR2A EGR1p; Rattus norvegicus, PC-12, 6 h) is reported as 45 nM and the IC50 (HTR2A EGR1p) is reported as 34 nM and 34 to 45 nM. For the same molecule, the IC50 (ERBB2 [1]) was […], the IC50 (ERBB3) was […] and the “ERBB4 NFAT IC50” value (ERBB4 NFAT) was “no effect (EGFR, ERBB2/3, ERBB4), 0.352 - 4.531 µM (HTR2A)”. The IC50 (EGFR EGR1p; Rattus norvegicus, PC-12, 6 h) was 244 nM, the IC50 (EGFR EGR1p) was 122 nM and 122 to 244 nM and the IC50 (ERBB2/3 EGR1p; Rattus norvegicus, PC-12, 6 h) was 41 nM. For the same molecule, the IC50 (ERBB2/3 EGR1p) was 71 nM and 41 to 71 nM.

`NCCc1c[nH]c2ccc(O)cc12` [Serotonin, Serotonin hydrochloride] showed an EC50 [2] of 167 nM, an EC50 (HTR2A NFAT; read-out: NFAT (HTR2A) activity EC50 (barcode), agonist dose response, PC12 cells, HTR2A co-transfected, barcode readout) of 73 nM and an EC50 (NFAT (HTR2A)) of 61 nM. The EC50 (CRE (HTR2A)) was 465 nM and the EC50 (HTR2A CRE) was 164 nM.

For “Heregulin-β1 (EGF Domain) human (EGF-like domain) [EGFld]”, the “EGR1p (ERBB4) activity EC50 (luciferase)” value (EGR1p (ERBB4)) was 0.384 ng/mL and the “EGR1p (ERBB4) activity EC50 (barcode)” value (ERBB4 EGR1p) was 0.607 ng/mL.

In the case of `C#Cc1cccc(Nc2ncnc3cc(OCCOC)c(OCCOC)cc23)c1` [Erlotinib, Erlotinib hydrochloride], the IC50 (HTR2A NFAT) is given as 98 nM, the IC50 (ERK (MAPK)) is given as 160 to 290 nM and the “ERBB4 NFAT IC50” value (ERBB4 NFAT) is given as “no effect (EGFR, ERBB2/3, ERBB4), 0.098 µM (HTR2A, small effect)”. For the same molecule, the IC50 (ERBB4 EGR1p) was 698 nM, the IC50 (ERBB4 [3]) was […] and the IC50 (ERBB2 [4]) was […]. The IC50 (ERBB2/3 EGR1p; Rattus norvegicus, PC-12, 6 h) was 304 nM.

For `C=CC(=O)Nc1cc(Nc2nccc(-c3cn(C)c4ccccc34)n2)c(OC)cc1N(C)CCN(C)C` [Osimertinib, Osimertinib (AZD9291)], the “EGFR NFAT IC50” value (EGFR NFAT) was “no effect (EGFR, ERBB2/3, ERBB4) - 0.772 µM (HTR2A)”, the IC50 (HTR2A EGR1p; Rattus norvegicus, PC-12, 6 h) was 109 nM and the IC50 (HTR2A NFAT) was 772 nM. The “effect on CRE sensor activity (luciferase), in words” value (CRE sensor; PC12 cells, CRE sensor only, stimulation mix) was “CRE sensor activation at high compound concentrations”, the EC50 (CRE sensor; Rattus norvegicus, PC-12) was 3010 nM and the IC50 (ERBB2 [5]) was […]. For the same molecule, the “ERBB4 NFAT IC50” value (ERBB4 NFAT) was “no effect (EGFR, ERBB2/3, ERBB4) - 0.772 µM (HTR2A)”, the EC50 (cAMP) was 3910 nM and the IC50 (ERBB4 EGR1p) was 37 nM. The IC50 (EGFR [6]) was […], the “effect on calcium levels (Fluo-4 AM)” value (calcium) was “but not calcium levels” and the IC50 (ERBB4 [7]) was […]. For the same molecule, the IC50 (EGFR EGR1p; Rattus norvegicus, PC-12, 6 h) was 80 nM and the IC50 (ERBB2/3 EGR1p; Rattus norvegicus, PC-12, 6 h) was 56 nM.

In the case of hEGF, the “EGR1p activity EC50 (luciferase)” value [8] is reported as 0.161 ng/mL, the “EGR1p (ERBB4) activity EC50 (barcode)” value (ERBB4 EGR1p) is reported as 0.093 ng/mL and the “EGR1p activity EC50 (barcode)” value [9] is reported as 0.089 ng/mL.

With `C[C@]12CCC(=O)C=C1C=C[C@@H]1[C@@H]2CC[C@@]2(C)[C@H]1CC[C@@]21CCC(=O)O1` [Canrenone] the “CRE sensor response at high compound concentration (barcoded)” value ([10]; 10 μM compound) was “upregulated CRE sensor response” and the “inhibition of ERBB receptors and pathways (barcoded ERBBprofiler), in words” value [10] was “did not inhibit any ERBB receptor nor pathway monitored”.

With `CC(=O)S[C@@H]1CC2=CC(=O)CC[C@]2(C)[C@H]2CC[C@@]3(C)[C@@H](CC[C@@]34CCC(=O)O4)[C@H]12` [Spironolactone] the IC50 (ERBB2/3 CRE) was 905 nM, the IC50 (ERBB4 EGR1p) was greater than 10000 nM and the IC50 (EGFR CRE) was 8.41 nM. It also gave an IC50 (ERBB2/3) greater than 10000 nM and an IC50 (EGFR [11]) greater than 10000 nM.

B1: Heregulin-β1 (EGF Domain) human (EGF-like domain) (protein)
chain: TSHLVKCAEKEKTFCVNGGECFMVKDLSNPSRYLCKCPNEFTGDRCQNYVMASFYKHLGIEFMEAEELYQK
modifications: three disulfides
notes: EGF-like domain, ligand for ERBB3 and ERBB4
With B1 the “ERBB4 activity EC50 (luciferase)” value (ERBB4 [12]) was 0.700 ng/mL, the “ERBB4 activity EC50 (barcode)” value (ERBB4 [13]) was 1.372 ng/mL and the “ERBB2/3 EC50 (barcode)” value (ERBB2/3; agonist dose response, PC12 cells, 6 h, split TEV, barcode readout) was 0.143 ng/mL.

Source: article PMC10831936 (iScience, 2024)
